# Legend:
# 735 anti PSA antibody = experiment: Screening ELISA of the NIH Clinical Collection 1 Library for organic PSA mimetics; assay type: binding; conditions: 10 µM of library compound pre-incubated with 735 antibody; repeated three times
# Experimental: To identify organic PSA mimetics the NIH Clinical Collection 1 Library was screened. PSA mimicking peptide (NTHTDPYIYPIDC; Mehanna et al., (2009); Brain 132 (Pt 6): 1449-1462.) coupled to catalase (3 µg/ml; 25 µl/well) was immobilized on the surface of 384-well flat bottom microtiter plates with high binding surface (Corning Life Sciences, Amsterdam, The Netherlands). Wells were washed with […], blocked with 1% bovine serum albumin for 1 h at room temperature. 735 anti PSA antibody (0.1 µg/ml; 25 µl/well) was incubated with PBS, PBS containing DMSO solvent control or PBS containing 10 µM of the organic compounds from the library for 1 h at room temperature and then added to the wells coated with […] coupled to catalase. As control for positive competition, 735 antibody was incubated with the PSA mimicking peptide (10 µM). After incubation for 1 h, wells were washed 10 times with PBS containing 0.05% Tween-20 (PBST), HRP-coupled secondary antibody (1:5,000 in PBS) was added for 1 h and after 10 more washes with PBST, binding of antibody was visualized by incubating wells with 25 µl of 0.4 mg/ml o-phenylenediamine dihydrochloride (Thermo Scientific) for 15 min. The reaction was stopped by addition of 25 µl 2.5 M H2SO4 and quantified using an ELISA reader (EnVision with Plateworks software, Perkin Elmer, Hamburg, Germany). […]
# quadriceps muscle = experiment: Quadriceps muscle mass after femoral nerve injury; assay type: in vivo, C57BL/6J mice; conditions: 15 week recovery, control group 111 mg
# Experimental: (§1) Tegaserod was evaluated in a 2 mm femoral nerve defect of 12-week old C57BL/6J mice as previously described in Mehanna et al. (2009), see above. Briefly, mice were anesthetized and the femoral nerve of the left rear leg exposed. The nerve was bis-sected 3 mm proximal to the branching of the saphenous and motor branches, and the nerve ends were sutured 0.5 mm into a 3 mm polyethylene conduits with 0.58 mm inner diameter (Becton Dickinson), leaving an overall gap length of 2 mm. Conduits were filled with PuraMatrix peptide hydrogel (Becton Dickinson 354250) using 2x PBS as the gelation stimulant. Tegaserod was dissolved in the 2x PBS at concentrations of 500 nM and 5,000 nM, resulting in final concentrations of 250 nM and 2,500 nM once the PBS was combined 1:1 v/v with the PuraMatrix.
# The quadriceps muscle, which is solely innervated by the femoral nerve, was extracted from each mouse and weighed at the end of the 15 week recovery period. The quadriceps muscles were removed from the injured and uninjured hind limbs of the mice. The quadriceps femoris muscle was identified by first removing the skin overlying the cranial thigh. The muscle was bluntly dissected starting distally at the level of the patellar tendon, working proximally. […]
# [1] = system: murine cerebellar granule neurons (cGNs), Schwann cells, and motoneurons; experiment: In vitro neurite/process outgrowth, statements covering all cell types; assay type: cell-based, C57BL/6J mice
# Experimental: (§2) Primary cultures of cerebellar neurons or Schwann cells were prepared from cerebellum or dorsal root ganglia of 7-day-old C57BL/6J mice as described in Mehanna et al. (2009), Brain, 132 (Pt 6): 1449-62 and Loers et al. (2005), J. Neurochem., 92(6): 1463-76. Motoneurons were prepared from E14 C57BL/6J mice as described in Simova et al. (2006), Ann. Neurol., 60(4): 430-437. In brief, 48-well plates were coated with 0.01% poly-L-lysine (PLL) or poly-L-ornithine (PLO) overnight at 4°C, washed twice with water and air-dried. Directly before use, plates were washed twice with PBS, and Schwann cells, cerebellar neurons (PLL) or motoneurons (PLO) were seeded at a density of 1.25 x 10^4 (Schwann cells and motoneurons) or 2.5 x 10^4 cells (cerebellar neurons) per well in 250 µl of corresponding serum-free culture medium. Soluble organic compounds were added to the culture 1 h after seeding in increasing concentrations. After maintenance for 24 h at 37°C, cells were fixed with 2.5% glutaraldehyde and stained with 1% methylene blue/toluidine blue in 1% borax. Morphological quantification of neurite or process lengths was performed as described in Mehanna et al. (2009), see above. Schwann cell processes and neurites of cerebellar neurons with a length of at least one cell body diameter were counted and total neurite or process length per cell was determined by counting 50 cells in each of two wells per experiment. At least three independent experiments were performed for each culture. Also, the activity of tegaserod with the PSA peptide mimic and the bacterial PSA analogue, colominic acid, on neurite and process extension experiments was compared.
# [2] = system: regenerated femoral nerves; experiment: Histology of the regenerated femoral nerve; assay type: in vivo, C57BL/6J mice; conditions: 15 weeks; for myelinated axons: vehicle control 78%; for average number of axons within regenerated nerves: vehicle control 432, unsevered 608
# Experimental: as §1
# At the end of the recovery period, femoral nerves were fixed and histology was performed to assess nerve morphology within the regenerated region 1 mm into the 2 mm gap. Animals were perfused with 4% paraformadehyde and explanted nerves were post-fixed in osmium tetroxide and embedded in resin. One and 2 µm thick sections were cut into the center of the regenerated nerve and sections were stained with 1% toluidine blue and 1% borax. Sections were imaged with a Zeiss Axiocam, using 20x, 40x, and 100x objectives and AxioVision imaging software. ImageJ software was used to calculate total nerve area, number of axons, % of myelinated axons, and g-ratio as described Mehanna et al. (2009), see above.
# Schwann cells = experiment: In vitro process outgrowth of Schwann cells; assay type: cell-based, C57BL/6J mice; conditions: compared to control; Figure 2C, D
# Experimental: as §2, with “After maintenance for 24 h at 37°C, cells were fixed with 2.5% glutaraldehyde and stained with 1% methylene blue/toluidine blue in 1% borax.” left out, “At least three independent experiments were performed for each culture. Also, the activity of tegaserod with the PSA peptide mimic and the bacterial PSA analogue, colominic acid, on neurite and process extension experiments was compared.” left out
# [3] = system: motoneurons isolated from NCAM^-/- mice; experiment: In vitro neurite outgrowth of NCAM-deficient motoneurons; assay type: cell-based; conditions: tegaserod 100 nM; colominic acid 3 µM; PSA mimicking peptide 30 µM; Figure 2B
# Experimental: as §2, with “After maintenance for 24 h at 37°C, cells were fixed with 2.5% glutaraldehyde and stained with 1% methylene blue/toluidine blue in 1% borax.” left out, “At least three independent experiments were performed for each culture. Also, the activity of tegaserod with the PSA peptide mimic and the bacterial PSA analogue, colominic acid, on neurite and process extension experiments was compared.” left out
smiles,measurement,setting,value
"[H]/N=C(/NCCCCC)N/N=C/c1c[nH]c2ccc(OC)cc12 [tegaserod, (E)-but-2-enedioic acid; 1-[[(Z)-(5-methoxyindol-3-ylidene)methyl]amino]-2-pentylguanidine]",identification as organic compound that could potentially mimic PSA,735 anti PSA antibody,could potentially mimic PSA
same,"average quadriceps muscle mass, injured limb","quadriceps muscle; 250 nM, non-injured legs 208 mg",165 mg
same,"quadriceps muscle mass, injured limb","quadriceps muscle; 2,500 nM, failed to reach statistical significance",127 mg
same,minimal effective concentration,"[1]; Mus musculus, Neuron, 24 h, dose-response curve, Figure 2A, read-out: concentration at which an effect on neurite and process extension was shown",0.001 µM
same,concentration of optimal effect on neurite and process extension,"[1]; all cell types, Figure 2A",100 nM
same,concentration of maximal stimulatory effects,[1]; neurite and process extension of neurons and Schwann cells,10 to 250 nM
same,effect of overdosing / higher concentrations (in words),[1]; neurons and Schwann cells,the stimulatory effect was reduced or even abolished
same,times more effective than colominic acid in stimulating process formation,[1]; neurons and Schwann cells,about 20 times
same,times more effective than the PSA mimicking peptide in stimulating process formation,[1]; neurons and Schwann cells,about 200 times
same,myelinated axons,[2]; 250 nM,88%
same,average number of axons within regenerated nerves,[2]; 250 nM,589 axons
same,myelinated axons,"[2]; 2,500 nM",83%
same,average number of axons within regenerated nerves,"[2]; 2,500 nM",434 axons
same,effect on process outgrowth of Schwann cells (in words),Schwann cells,significantly enhance neurite/process outgrowth compared to control
same,effect on neurite extension of NCAM^-/- motoneurons (in words),[3],no enhancement in neurite extension
